# “And” between values parts separate entries of the source, which are not always exact repeats. Identical values can stand only once.
# What was measured:
# phosphorylated ZAP70 = assay: Flow cytometry of phosphorylated ZAP70 in Th9 cells (Figure 5E); format: cell-based, mouse; details: 30 minutes after activation; result in words
# Method: Details regarding staining panels (human and mouse), reagents (including clones and catalog numbers), acquisition settings, compensation/controls, and analysis procedures are provided in Supplemental Methods.
# BioLegend, Cat. No. 422301 or Mouse TruStain FcX™, BioLegend, Cat. No. 101319) for 10 minutes at 4°C. For surface marker detection, cells were stained with fluorochrome-conjugated monoclonal antibodies in 96-well V-bottom plates and incubated on ice for 30 minutes. After staining, cells were washed twice and resuspended in FACS buffer for analysis.
# Prior to intracellular cytokine staining, cells were restimulated for 4 hours with PMA (Absin, Cat. No. abs9107), ionomycin (Sigma-Aldrich, Cat. No. I0634), and brefeldin A (MedChemExpress, Cat. No. HY-16592). For intracellular cytokine staining, cells were first surface-stained as described above, then fixed and permeabilized using the BD Cytofix/Cytoperm™ kit (BD Biosciences, Cat. No. 554714) according to the manufacturer ’s protocol. Intracellular proteins were stained with directly conjugated antibodies targeting IL-9, IL-17a, IL-4, IFN-γ, TNF-α, FOXP3, p-ZAP70, Perforin, and […]
# Antibodies used for mouse samples included those against IL-9 (PE, clone RM9A4, Biolegend, Cat. No. 514104), IFN-γ (PE, clone XMG1.2, Biolegend, Cat. No.
# Cat. No. 103138), CD4 (APC/Cy7, clone E-AB-F1353UJ, Elabscience, Cat. No. […]
# Th9 cells [1] = assay: Intracellular ATP assay, luminescence (Figure 4L); format: cell-based, mouse; details: result in words
# Method: Intracellular adenosine triphosphate (ATP) levels were measured using a chemiluminescent ATP assay kit (Beyotime, catalog S0026) according to the manufacturer’s protocol. Briefly, cells were lysed and incubated with the luciferase-based detection reagent, and the resulting luminescent signal was detected using an Infinite M200 multimode microplate reader (TECAN). ATP concentrations were calculated based on a standard curve and normalized to cell number or protein content where applicable.
# Th9 cells [2] = assay: Seahorse oxygen consumption rate, mitochondrial stress test (Figure 4F-H); format: cell-based, mouse
# Method: After stimulation, cells were washed, resuspended in Seahorse XF assay medium (Agilent Technologies; pH 7.40–7.45, catalog 103576-100) and seeded at 5 × 10^5 cells per well in Seahorse XF96 microplates. Plates were centrifuged at 400 × g for 5 minutes to promote adherence and monolayer formation, and all conditions were tested in quadruplicate.
# Oxidative phosphorylation was assessed on the same instrument using the XFe96 Mitochondrial Stress Test Kit (Agilent Technologies, catalog 103015-100). Oligomycin (1.5 μM), FCCP (0.5 μM), and rotenone plus antimycin A (0.5 μM each) were injected sequentially to measure OCR as a proxy for oxidative phosphorylation. The mitochondrial stress response was derived from OCR values obtained before and after each injection.
# IL-6 = assay: Serum IL-6 by ELISA after ACT (S1B); format: in vivo, mouse; details: for IL-6 of blood from mouse: Supplemental Figure 1B
# Method: Peripheral blood was collected from mouse tail veins at predefined time points in the tumor model. Samples were allowed to clot at 4°C for 1 hour and were then centrifuged at 600g for 25 minutes to obtain serum. Serum IL-6 levels were measured using an ELISA kit (Invitrogen; catalog 88-7064) according to the manufacturer’s instructions.
# Days after ACT Days after ACT
# Figure S1. EpA enhances immune responses. […]
# Serum IL-6 levels after ACT, measured by ELISA on days 5, 10, 15, and 20. (C–E) […]
# Statistical analysis was performed using two-way ANOVA with Tukey’s post hoc test (A), one-way ANOVA with Tukey’s post hoc test (B) or two-tailed unpaired Student’s t-test (D and G–M). ns, not significant. *p < 0.05, **p < 0.01, ****p < 0.0001.
# (also on this page, place not known: Mouse weight (g) CtrlEpA CtrlEpA CtrlEpA0 I CD45.1+ T cells (%) CtrlEpA CD4+ T cells (%) CtrlEpA CtrlEpA CtrlEpA FSC CD8 CD8 FSC FSC FSC BNumber of CD45.1+ T cells (×103 per mgĎ Number of CD4+ T cells (×104 per mgĎ DC (%)NK cells (%) NK cells (%) DC (%) Number of DC (×103 per mg) Number of NK cells (×105) Number of NK cells (×103 per mg) Number of DC (×105) FSC FSC FSC CD8 CtrlEpA CtrlEpA CtrlEpA CD8+ T cells (%) Number of CD8+ T cells (×104 per mgĎ nsns ns nsns ns 40 IL-6 (pg/ml))
substance,measurement,setting,value
anteiso-C15 Leu7 surfactin [EpA],ZAP70 phosphorylation,phosphorylated ZAP70,significantly enhanced ZAP70 phosphorylation
same,intracellular ATP levels,Th9 cells [1],significantly elevated
same,"OCR, basal and maximal respiration","Th9 cells [2]; EpA 10 μM, 4 days, result in words",higher basal and maximal respiration
same,Basal Oxygen Consumption Rate,"Th9 cells [2]; Figure 4G, individual replicates, (n = 5), in pmol/min (unit assumed)",169.53 and 169.91 and 173.53 and 152.33 and 158.62
same,Max Oxygen Consumption Rate,"Th9 cells [2]; Figure 4H, individual replicates, (n = 5), in pmol/min (unit assumed)",295.4 and 261.85 and 290.65 and 188.88 and 233.85
same,IL-6 of blood from mouse,"IL-6; Day5, replicate 1",26.4444 pg/mL
same,IL-6 of blood from mouse,"IL-6; Day5, replicate 2",18 pg/mL
same,IL-6 of blood from mouse,"IL-6; Day5, replicate 3",22.6667 pg/mL
same,IL-6 of blood from mouse,"IL-6; Day5, replicate 4",28 pg/mL
same,IL-6 of blood from mouse,"IL-6; Day10, replicate 1",22.6667 pg/mL
same,IL-6 of blood from mouse,"IL-6; Day10, replicate 2",21.3333 pg/mL
same,IL-6 of blood from mouse,"IL-6; Day10, replicate 3",24.2222 pg/mL
same,IL-6 of blood from mouse,"IL-6; Day10, replicate 4",22 pg/mL
same,IL-6 of blood from mouse,"IL-6; Day15, replicate 1",19.5556 pg/mL
same,IL-6 of blood from mouse,"IL-6; Day15, replicate 2",16 pg/mL
same,IL-6 of blood from mouse,"IL-6; Day15, replicate 3",11.3333 pg/mL
same,IL-6 of blood from mouse,"IL-6; Day15, replicate 4",20 pg/mL
same,IL-6 of blood from mouse,"IL-6; Day20, replicate 1",21.7778 pg/mL
same,IL-6 of blood from mouse,"IL-6; Day20, replicate 2",14.8889 pg/mL
same,IL-6 of blood from mouse,"IL-6; Day20, replicate 3",14.4445 pg/mL
same,IL-6 of blood from mouse,"IL-6; Day20, replicate 4",26.8889 pg/mL
same,serum IL-6 levels,"IL-6; EpA-Th9 therapy vs control, result in words",No significant differences

# Source: article PMC12867150, “A fungi-derived cyclic peptide enhances Th9-mediated antitumor immunity by targeting ZAP70 and SREBP1” (The Journal of Clinical Investigation, 2025)
